This passage reports IC50 results from publication PMC8449414, “Rational design of ASCT2 inhibitors using an integrated experimental-computational approach” (Proceedings of the National Academy of Sciences of the …, 2021).

The target in this test is T1, hASCT2 (Homo sapiens, UniProt Q15758).
T1 construct: expressed in transfected cells; host or cells: HEK293 (ATCC CRL-11268), transient transfection
T1 sequence (Q15758 1-541): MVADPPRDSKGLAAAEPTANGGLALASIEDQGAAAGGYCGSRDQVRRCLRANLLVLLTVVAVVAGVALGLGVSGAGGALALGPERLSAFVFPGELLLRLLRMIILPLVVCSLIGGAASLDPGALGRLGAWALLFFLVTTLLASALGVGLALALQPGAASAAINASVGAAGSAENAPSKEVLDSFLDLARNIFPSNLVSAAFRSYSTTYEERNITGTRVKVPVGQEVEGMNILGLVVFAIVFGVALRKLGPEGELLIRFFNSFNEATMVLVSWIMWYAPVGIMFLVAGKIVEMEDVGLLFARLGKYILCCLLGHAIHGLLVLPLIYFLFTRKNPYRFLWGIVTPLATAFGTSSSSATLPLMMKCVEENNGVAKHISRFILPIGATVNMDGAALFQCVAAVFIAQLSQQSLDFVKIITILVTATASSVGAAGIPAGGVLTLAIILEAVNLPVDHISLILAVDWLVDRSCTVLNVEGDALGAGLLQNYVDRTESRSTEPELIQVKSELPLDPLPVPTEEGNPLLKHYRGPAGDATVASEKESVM
The test can be described thus: Glutamine transport assay in proteoliposomes reconstituted with purified hASCT2. The class given is biochemical. As to conditions: in the presence of 5 µM glutamine; read-out: IC50, inhibition of glutamine uptake in proteoliposomes. The source says:
Our computational models predicted Lc-BPE as a competitive inhibitor targeting the substrate binding site. To test this prediction, we performed electrophysiological competition experiments in the presence of varying concentrations of the substrate, L-alanine. The results were consistent with a competitive inhibition mechanism (SI Appendix, Fig. S4). At low inhibitor concentrations, the alanine-induced currents were inward, as expected from transported substrates, indicative of the inability of Lc-BPE to displace alanine from the binding site. However, as inhibitor concentration increased, the currents became outwardly directed in a dose-dependent manner, which marked the displacement of alanine by the inhibitor (SI Appendix, Fig. S5). The apparent Ki increased as a function of the alanine concentration, as anticipated for a competitive mechanism (SI Appendix, Figs. S5 and S6). […] We further tested the inhibitory activity of Lc-BPE in a cell-free transport assay in proteoliposomes, where purified and reconstituted hASCT2 catalyzes the exchange of intracellular nonlabeled L-glutamine with extracellular radioactive-labeled L-glutamine. We observed a dose-dependent inhibition of glutamine transport when Lc-BPE was added externally, which confirms that this compound is an hASCT2 inhibitor with a half-maximum inhibitory concentration (IC50) value of 20 µM in the presence of 5 µM glutamine (Fig. 2D).
Dilutions to working concentrations were made using external buffer. The highest […]
cells. For rASCT2, hASCT2 and hASCT1, external buffer contained 140 mM NaCl, 2 mM MgCl2, 2 mM CaCl2, and 10 mM HEPES, pH 7.40 while internal pipette solution comprised of 130 mM NaSCN, 2 mM MgCl2, 10 mM EGTA, 10 mM HEPES and 10mM alanine, pH 7.40. […] Current s traces were recorded using an Adams and List EPC7 amplifier and digitized using a Molecular Devices Digidata A/D converter.
Data analysis was performed as described previously 46. Linear and nonlinear curve fitting of the experimental data were analyzed using MicroCal Origin software. […]
A word on the IC50: it is the concentration that inhibits the measured activity by half. In the case of `O=C(O[C@H]1CN[C@H](C(=O)O)C1)c1ccc(C(=O)c2ccccc2)cc1` [ERA-35], the half-inhibitory concentration (IC50) came out at 411 µM.

On to `N[C@@H](COC(=O)c1ccc(NC(=O)c2ccccc2)cc1)C(=O)O` [ERA-21], for which the IC50 worked out at 56 µM.

As to `O=C(O[C@@H]1CN[C@H](C(=O)O)C1)c1ccc(-c2ccccc2)cc1` [Lc-BPE, L-cis hydroxyproline biphenyl ester], the IC50 was 20 µM.
